Here are results for two compounds from paper PMC7076388 (Pharmaceutics, 2020).

Entries after “also recorded” stand apart in the source; their conditions may differ.

For data set [1], the target named is T1, COX-1 (Ovis aries, UniProt P05979).
T1 construct: purchased Cayman Chemical
T1 sequence (P05979 25-600): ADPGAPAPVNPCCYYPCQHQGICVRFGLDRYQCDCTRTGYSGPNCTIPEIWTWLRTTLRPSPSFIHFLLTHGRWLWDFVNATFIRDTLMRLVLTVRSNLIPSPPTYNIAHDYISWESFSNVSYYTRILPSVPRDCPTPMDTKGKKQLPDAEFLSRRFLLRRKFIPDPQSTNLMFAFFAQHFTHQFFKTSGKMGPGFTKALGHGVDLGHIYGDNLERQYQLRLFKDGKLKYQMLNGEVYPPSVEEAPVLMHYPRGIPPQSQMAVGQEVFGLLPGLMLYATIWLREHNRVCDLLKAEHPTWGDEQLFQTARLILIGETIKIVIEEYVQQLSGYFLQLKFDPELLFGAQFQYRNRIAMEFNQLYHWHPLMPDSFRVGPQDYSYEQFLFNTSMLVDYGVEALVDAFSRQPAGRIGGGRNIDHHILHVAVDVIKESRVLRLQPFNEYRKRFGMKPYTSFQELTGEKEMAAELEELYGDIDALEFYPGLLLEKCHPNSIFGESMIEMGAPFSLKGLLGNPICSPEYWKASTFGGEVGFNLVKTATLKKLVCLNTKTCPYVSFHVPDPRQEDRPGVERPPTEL
The data set can be described thus: COX fluorescent inhibitor screening assay, COX-1. Type of data set: biochemical. On the procedure: (§1) The assay was performed using the COX fluorescent inhibitor screening assay kit (Cayman chemical, MI, USA), with some modifications. […] After 5 min of incubation at room temperature, 5 µL of 10-acetyl-3,7-dihydroxyphenoxazine (ADHP) and 20 µL of a solution containing arachidonic acid (0.5 mM) and KOH (2.5 mM) were added to each well.

The target of data set [2] is T2, COX-2 (Homo sapiens, UniProt P35354).
T2 construct: purchased Cayman Chemical
T2 sequence (P35354 18-604): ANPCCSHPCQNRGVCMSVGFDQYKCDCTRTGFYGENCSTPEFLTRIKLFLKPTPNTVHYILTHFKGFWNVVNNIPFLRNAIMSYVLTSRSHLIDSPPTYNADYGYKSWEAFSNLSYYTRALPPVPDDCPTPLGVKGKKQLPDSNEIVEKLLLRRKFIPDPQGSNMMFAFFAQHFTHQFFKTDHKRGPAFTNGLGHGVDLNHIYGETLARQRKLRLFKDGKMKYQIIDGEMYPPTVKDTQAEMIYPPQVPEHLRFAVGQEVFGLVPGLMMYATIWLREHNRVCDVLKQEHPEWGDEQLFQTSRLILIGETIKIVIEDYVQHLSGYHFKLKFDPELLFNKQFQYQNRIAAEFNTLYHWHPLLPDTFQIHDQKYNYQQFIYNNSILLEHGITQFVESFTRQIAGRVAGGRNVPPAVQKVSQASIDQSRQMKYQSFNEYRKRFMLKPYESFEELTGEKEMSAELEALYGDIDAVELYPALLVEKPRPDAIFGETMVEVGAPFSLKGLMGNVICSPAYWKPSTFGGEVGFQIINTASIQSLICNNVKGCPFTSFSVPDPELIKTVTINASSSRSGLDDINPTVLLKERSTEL
Description: COX fluorescent inhibitor screening assay, COX-2. Type of data set: biochemical. As for the experimental part: as §1

The target in data set [3] is 20S proteasome isolated from erythrocytes (Homo sapiens, UniProt P28074). The conditions noted are these: reported in literature; cited from earlier work.
For data set [4], the target named is T1, COX-1. Also noted: method as in PMID 30987203. The conditions noted are these: 25 µM; cited from earlier work.
The test system of data set [5] is LPS-induced •NO production in RAW 264.7 cells. The conditions noted are these: preliminary study; cited from earlier work.
Data set [6] concerns the target T3, LOX from glycine max (soybean) (Glycine max, UniProt P08170).
T3 construct: purchased Sigma-Aldrich
T3 sequence (P08170 1-839): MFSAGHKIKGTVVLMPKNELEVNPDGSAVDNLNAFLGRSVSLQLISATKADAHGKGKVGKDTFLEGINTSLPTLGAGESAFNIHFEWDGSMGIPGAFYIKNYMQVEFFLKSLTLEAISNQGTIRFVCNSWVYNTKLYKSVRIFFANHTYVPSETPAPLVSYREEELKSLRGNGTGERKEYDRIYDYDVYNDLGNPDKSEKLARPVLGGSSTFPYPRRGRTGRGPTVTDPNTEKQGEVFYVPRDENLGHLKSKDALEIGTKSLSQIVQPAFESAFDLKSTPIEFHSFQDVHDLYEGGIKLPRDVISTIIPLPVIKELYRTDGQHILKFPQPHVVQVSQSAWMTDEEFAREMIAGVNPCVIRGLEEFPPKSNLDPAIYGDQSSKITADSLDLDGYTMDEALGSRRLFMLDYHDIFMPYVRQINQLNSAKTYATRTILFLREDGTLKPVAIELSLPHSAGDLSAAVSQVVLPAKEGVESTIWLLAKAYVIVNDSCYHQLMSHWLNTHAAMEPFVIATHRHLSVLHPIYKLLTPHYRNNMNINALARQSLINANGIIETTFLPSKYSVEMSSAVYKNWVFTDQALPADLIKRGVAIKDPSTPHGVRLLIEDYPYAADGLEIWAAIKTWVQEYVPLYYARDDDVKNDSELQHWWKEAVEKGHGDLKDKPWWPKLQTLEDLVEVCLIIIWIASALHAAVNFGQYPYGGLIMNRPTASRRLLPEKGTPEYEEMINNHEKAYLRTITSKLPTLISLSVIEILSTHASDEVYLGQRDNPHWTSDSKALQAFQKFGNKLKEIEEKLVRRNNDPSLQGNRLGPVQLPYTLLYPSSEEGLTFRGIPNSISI
Description: Lipoxygenase glycine max (soybean) assay. The class given is biochemical. The conditions noted are these: dose-response assay; read-out: IC50 for LOX inhibition. On the procedure:
The inhibitory effect on LOX was assessed in 96-well plates, using a modified version of a previously reported procedure from Pereira et al.. […] After 5 min pre-incubation at room temperature, the reaction was started by addition of linoleic acid substrate (20 µL of a 4.18 mM solution in ethanol). The reaction was monitored at 234 nm using a multiplate reader (Multiskan Thermo Fisher Scientific Oy, Vantaa, Finland), for 3 min.

The test system of data set [7] is AGS cells. The data set can be described thus: MTT cell viability, AGS cells. Type of data set: cell-based. The conditions noted are these: 100 µM, 24 h. On the procedure:
Adenocarcinoma gastric cells (AGS; Sigma-Aldrich, St. Louis, MO, USA), murine-macrophage cell line (RAW 264.7; American Type Culture Collection, LGC Standards S.L.U., Barcelona, Spain), and human foetal lung fibroblasts (MRC-5; ECACC, Porton Down Salisbury, UK) were cultured as a monolayer at 37 °C in a humidified incubator with 5% carbon dioxide. AGS and RAW 264.7 cells were grown in DMEM, supplemented with 1% streptomycin/penicillin and 10% FBS (Gibco®). MRC-5 cells were grown in MEM, supplemented with 1% streptomycin/penicillin and 10% FBS.
Cell viability was evaluated by the MTT reduction assay. Cells were cultured in 96-well plates (15,000 cells/well for AGS, 25,000 cells/well for RAW and 20,000 cells/well for MRC-5) and allowed to attach for 24 h. After incubation with compounds for 24 h, MTT (0.5 mg/mL final concentration) was added to each well and the plate was incubated for 75 min at 37 °C. Formazan crystals were dissolved by the addition of a DMSO: isopropanol mixture (3:1) and then quantified spectrophotometrically at 570 nm using a microplate reader (Multiskan Thermo Fisher Scientific Oy, Vantaa, Finland).

For data set [8], the target named is T2, COX-2. Also noted: method as in PMID 30987203. The conditions noted are these: 25 µM; low selectivity towards COX-2; cited from earlier work.
Data set [9] has as its system RAW 264.7 cells. Details: method as in PMID 30987203. The conditions noted are these: up to 100 µM, 24 h, MTT; cited from earlier work.
The target in data set [10] is T3, LOX from glycine max (soybean). Details: method as in PMID 30987203. The conditions noted are these: 100 µM; cited from earlier work.

In the case of `COc1ccc2cc([C@H](C)C(=O)O)ccc2c1` [Naproxen, reference compound], the figures for the inhibition at 25 µM in data set [1] and in data set [2] were 42.3% and 61.5%, respectively. The proteasome inhibition entry in [3] is listed as “not be an inhibitor of proteasome”.
Regarding `COC(=O)C(=Cc1ccccc1)NC(=O)C(CC(=O)O)NC(=O)C(C)c1ccc2cc(OC)ccc2c1` [Compound 2, Npx-L-Asp-Z-ΔPhe-OMe], the “COX inhibition level (COX-1)” value in data set [4] is “modest levels of COX inhibition”. For the same compound, the “inhibition of LPS-induced production of •NO” value in [5] is given as “modest ability to inhibit”. The IC50 in data set [6] worked out at 67.4 µM. In addition, the “toxicity towards AGS cells” value in data set [7] is given as “slightly cytotoxic”. In addition, in data set [8], the “COX inhibition level (COX-2)” value is on record as “modest levels of COX inhibition”. Moreover, in [9], the “cytotoxic effect on RAW 264.7 viability” value is “did not show any statistically significant cytotoxic effects”. Moreover, the “LOX inhibition at single concentration” value in [10] is listed as “significantly inhibit the LOX enzyme to a similar level to naproxen; also recorded: high levels of lipoxygenase (LOX) inhibition”.

The term inhibition denotes the percentage by which the read-out fell short of the control. What is called IC50 is the concentration needed to halve the response being measured.
